From patent publication US10426752B2, “Menthol-derivative compounds and use thereof as oral and systemic active agents” (priority 2009, dated 2019) come the findings set out here.

As usually defined, the IC50 is the concentration at which inhibition is half-maximal. As usually defined, the MIC is the lowest concentration that inhibits growth of the organism.

Molecules are shown by their SMILES. ≈ marks a conversion by molar mass, not a printed value. Where two headings read alike, the source gives them in different places.

Assay [1] has as its system PGE2. Kind of assay: PGE2 assay (anti-inflammatory test, SOP No. ATO-5307-00). The format is cell-based. On the procedure: The anti-inflammation test was carried out according to SOP No. ATO-5307-00 measuring the percent inhibition of PGE2.
(§1) The bacterial anti-attachment activity of a selected radical of menthol carbonate/carbamate derivatives of the present invention was investigated using the crystal violate assay (SOP No. ATO-5345-00) in a 384-well plate over a 0.0004-2500 ppm concentration range. The anti-oxidant activity of the menthol carbonate/carbamate derivatives of the present invention was determined using the lipid peroxides assay (Kamiaya Biomedical Co., Seattle, Wash.) which is a colorimetric method that measures reduction of cumene hydroperoxide radicals. The anti-microbial test was performed according to the SOP No. ATO-5308-00 for determination of Minimal Inhibitory Concentration (MIC). The anti-inflammatory test was carried out according to SOP No. ATO-5307-00 measuring the percent inhibition of PGE2.
The anti-inflammatory activity of 2-isopropyl-5-methylcyclohexyl 2-hydroxyphenyl carbamate was tested in PGE2 assay and compared to Triclosan.

The test system of assay [2] is GM-CSF. Kind of assay: 5-plex assay by using Luminex: GM-CSF. The format is cell-based. As to conditions: pure compounds. The source says: (§2) The menthol-derivative compound of the present invention was further evaluated in 5-plex assay by using luminex.
Assay [3] has as its system IL-1b. Kind of assay: 5-plex assay by using Luminex: IL-1b. In kind it is cell-based. The conditions noted are these: pure compounds.
Description: as §2

In assay [4] the test system is IL-6. Kind of assay: 5-plex assay by using Luminex: IL-6. As to conditions: for IL-6 (reduction of untreated control): pure compounds. In kind it is cell-based.
Description: as §2

The subject of assay [5] is TNF-α. Kind of assay: 5-plex assay by using Luminex: TNF-α. In kind it is cell-based. As to conditions: for TNF-α (reduction of untreated control): pure compounds.
Description: as §2

Assay [6] is described as follows: Lipid peroxides assay (anti-oxidant activity). In kind it is biochemical. The conditions noted are these: in simple solution, FIG. 2. On the procedure:
The anti-oxidant activity was determined using the lipid peroxidases assay (Kamiaya Biomedical Co., Seattle, Wash.) which is a colorimetric method that measures reduction of cumene hydroperoxide radicals.
as §1

For assay [7], the system named is MMP-13 mRNA. Kind of assay: Inhibition of MMP-13 mRNA expression stimulated by parathyroid hormone (PTH). In kind it is cell-based. The conditions noted are these: PTH for 4 hours, FIG. 4. The method, then:
The anti-MMP-13 activity was determined by measuring the inhibition of MMP-13 mRNA expression that is stimulated by parathyroid hormone (PTH).

Assay [8] relates to A.v. Kind of assay: Minimal Inhibitory Concentration (MIC) test, SOP No. ATO-5308-00. In kind it is cell-based. As to conditions: for MIC: read-out: MIC (against A.v). On the procedure:
The anti-microbial test was measured according to the SOP No. ATO-5308-00 for determination of Minimal Inhibitory Concenctration (MIC).
as §1

Assay [9] is described as follows: Artificial mouth model (anti-microbial efficacy). The conditions noted are these: FIG. 5.

Regarding `CC1CCC(C(C)C)C(OC(=O)Nc2ccccc2O)C1` (stereo not shown) [2-isopropyl-5-methylcyclohexyl 2-hydroxyphenyl carbamate], in [1] (pure compound), the “Anti-inflammatory activity in PGE2 assay (in words)” value is listed as “comparable to Triclosan”. Moreover, the IC50 in assay [1] (pure compounds, PGE2 assay, read-out: IC50) was determined as 380 nM. Also, the “GM-CSF (reduction of untreated control)” value in assay [2] was 6%. Also, in assay [3], the “IL-1b (reduction of untreated control)” value is reported as 13%. The “IL-6 production (in words)” value in assay [4] (pure compound) was “significantly inhibits”. In addition, in assay [4], the “IL-6 (reduction of untreated control)” value was found to be 33%. In [5] (pure compound), the “TNF-α production (in words)” value was “significantly inhibits”. Also, the “TNF-α (reduction of untreated control)” value in assay [5] came out at 81%. Moreover, the “Anti-oxidant efficacy (in words)” value in assay [6] is given as “comparable anti-oxidant efficacy with Vitamin E”. In assay [7], the “MMP-13 mRNA stimulated by parathyroid hormone (in words)” value is recorded as “significantly suppressed”. The “Anti-microbial efficacy in MIC test (in words)” value in [8] is “good anti-microbial efficacy”. Moreover, the MIC in [8] (in vitro) came out at 4.9 µg/mL (≈ 16.8 µM). Also, in assay [9], the “Anti-microbial efficacy in artificial mouth model (in words)” value is reported as “good anti-microbial efficacy”.

Molecule `Oc1cc(Cl)ccc1Oc1ccc(Cl)cc1Cl` [Triclosan, 2,4,4-trichloro-2′-hydroxydiphenyl ether, reference compound] yielded an IC50 in assay [1] of 480 nM. The “GM-CSF (reduction of untreated control)” value in [2] was 4%. For the same molecule, in assay [3], the “IL-1b (reduction of untreated control)” value is 13%. Besides, the “IL-6 (reduction of untreated control)” value in assay [4] amounted to 37%. In assay [5], the “TNF-α (reduction of untreated control)” value is reported as 58%. In addition, the minimal inhibitory concentration (MIC) in assay [8] worked out at 1.9 µg/mL (≈ 6.56 µM).
